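These data come from cells grown in 96-well plates and exposed to compound for 48 hours at five concentrations. GI50 marks 50% less growth.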 Activity calls are given as the source filed them. Cut-off read from the data, not from the text of the source: active = GI50 up to about 1.1 µM and inactive = higher.
Tests used:
Experiment in all cases: inhibition of tumour cell growth, NCI panel, 48 h
[1] = tested on: HT-29
[2] = tested on: HCT-116
[3] = tested on: SK-MEL-2
[4] = tested on: HL-60
[5] = tested on: MCF7
[6] = tested on: UO-31
[7] = tested on: HCT-15
[8] = tested on: NCI-H460
[9] = tested on: NCI-H226
[10] = tested on: MDA-MB-231
[11] = tested on: RPMI-8226
[12] = tested on: UACC-62
[13] = tested on: KM12
[14] = tested on: CCRF-CEM
[15] = tested on: SN12C
[16] = tested on: SR
[17] = tested on: EKVX
[18] = tested on: T47D
[19] = tested on: UACC-257
[20] = tested on: IGROV-1
[21] = tested on: A549
[22] = tested on: SNB-19
[23] = tested on: Malme-3M
[24] = tested on: ACHN
[25] = tested on: SNB-75
[26] = tested on: CAKI-1
[27] = tested on: SK-OV-3
[28] = tested on: HOP-62
[29] = tested on: DU-145
[30] = tested on: SK-MEL-5
[31] = tested on: TK-10
[32] = tested on: M14
[33] = tested on: NCI-H522
[34] = tested on: MOLT-4
[35] = tested on: U-251
[36] = tested on: RXF 393
[37] = tested on: HOP-92
[38] = tested on: HCC 2998
[39] = tested on: SW-620
[40] = tested on: A498
[41] = tested on: OVCAR-3
[42] = tested on: LOX IMVI
[43] = tested on: MDA-MB-435
[44] = tested on: SF-539
[45] = tested on: K562
[46] = tested on: Hs-578T
[47] = tested on: NCI-H23
[48] = tested on: MDA-N
[49] = tested on: BT-549
[50] = tested on: SF-268
[51] = tested on: SK-MEL-28
[52] = tested on: OVCAR-5
[53] = tested on: SF-295
[54] = tested on: COLO 205
[55] = tested on: NCI/ADR-RES
[56] = tested on: OVCAR-8
[57] = tested on: 786-0
[58] = tested on: OVCAR-4
[59] = tested on: PC-3

For `CCOC(=O)NC(Nc1cc(Cl)ccc1OC)(C(F)(F)F)C(F)(F)F`, the GI50 [1] was > 100 µM (inactive), the GI50 [2] was > 100 µM (inactive) and the GI50 [3] was > 100 µM (inactive). The GI50 [4] was > 100 µM (inactive), the GI50 [5] was > 100 µM (inactive) and the GI50 [6] was 30.1 µM (inactive). For the same compound, the GI50 [7] was greater than 100 µM, the GI50 [8] was > 100 µM (inactive) and the GI50 [9] was > 100 µM (inactive). The GI50 [10] was > 100 µM (inactive), the GI50 [11] was > 100 µM (inactive) and the GI50 [12] was > 100 µM (inactive). The GI50 [13] was > 100 µM (inactive), the GI50 [14] was 25.9 µM (inactive) and the GI50 [15] was > 100 µM (inactive). The GI50 [16] was 74.3 µM (inactive), the GI50 [17] was > 100 µM (inactive) and the GI50 [18] was > 100 µM (inactive). For the same compound, the GI50 [19] was > 100 µM (inactive), the GI50 [20] was > 100 µM (inactive) and the GI50 [21] was > 100 µM (inactive). For the same compound, the GI50 [22] was > 100 µM (inactive), the GI50 [23] was > 100 µM (inactive) and the GI50 [24] was > 100 µM (inactive). The GI50 [25] was > 100 µM (inactive), the GI50 [26] was > 100 µM (inactive) and the GI50 [27] was > 100 µM (inactive). For the same compound, the GI50 [28] was > 100 µM (inactive), the GI50 [29] was > 100 µM (inactive) and the GI50 [30] was > 100 µM (inactive). For the same compound, the GI50 [31] was > 100 µM (inactive), the GI50 [32] was > 100 µM (inactive) and the GI50 [33] was 64 µM (inactive). The GI50 [34] was > 100 µM (inactive), the GI50 [35] was > 100 µM (inactive) and the GI50 [36] was 68.9 µM (inactive). The GI50 [37] was > 100 µM (inactive), the GI50 [38] was > 100 µM (inactive) and the GI50 [39] was > 100 µM (inactive). For the same compound, the GI50 [40] was > 100 µM (inactive), the GI50 [41] was > 100 µM (inactive) and the GI50 [42] was > 100 µM (inactive). For the same compound, the GI50 [43] was > 100 µM (inactive), the GI50 [44] was > 100 µM (inactive) and the GI50 [45] was > 100 µM (inactive). The GI50 [46] was > 100 µM (inactive), the GI50 [47] was > 100 µM (inactive) and the GI50 [48] was > 100 µM (inactive). For the same compound, the GI50 [49] was > 100 µM (inactive), the GI50 [50] was > 100 µM (inactive) and the GI50 [51] was > 100 µM (inactive). The GI50 [52] was > 100 µM (inactive).

With `COc1cccc(/C=C\c2ccnc3ccccc23)c1` the GI50 [1] was > 10 µM (inactive), the GI50 [2] was > 10 µM (inactive) and the GI50 [3] was > 10 µM (inactive). For the same compound, the GI50 [4] was > 10 µM (inactive), the GI50 [5] was > 10 µM (inactive) and the GI50 [6] was > 10 µM (inactive). For the same compound, the GI50 [7] was greater than 10 µM, the GI50 [8] was > 10 µM (inactive) and the GI50 [9] was > 10 µM (inactive). The GI50 [10] was > 10 µM (inactive), the GI50 [11] was > 10 µM (inactive) and the GI50 [12] was > 10 µM (inactive). The GI50 [13] was > 10 µM (inactive), the GI50 [14] was > 10 µM (inactive) and the GI50 [15] was > 10 µM (inactive). For the same compound, the GI50 [53] was > 10 µM (inactive), the GI50 [17] was > 10 µM (inactive) and the GI50 [18] was > 10 µM (inactive). The GI50 [19] was > 10 µM (inactive), the GI50 [20] was > 10 µM (inactive) and the GI50 [21] was > 10 µM (inactive). The GI50 [22] was > 10 µM (inactive), the GI50 [23] was > 10 µM (inactive) and the GI50 [24] was > 10 µM (inactive). The GI50 [25] was > 10 µM (inactive), the GI50 [26] was > 10 µM (inactive) and the GI50 [27] was > 10 µM (inactive). The GI50 [54] was > 10 µM (inactive), the GI50 [55] was > 10 µM (inactive) and the GI50 [28] was > 10 µM (inactive). The GI50 [56] was > 10 µM (inactive), the GI50 [29] was > 10 µM (inactive) and the GI50 [30] was > 10 µM (inactive). The GI50 [31] was > 10 µM (inactive), the GI50 [32] was > 10 µM (inactive) and the GI50 [33] was > 10 µM (inactive). For the same compound, the GI50 [34] was > 10 µM (inactive), the GI50 [35] was > 10 µM (inactive) and the GI50 [36] was > 10 µM (inactive). The GI50 [37] was > 10 µM (inactive), the GI50 [38] was > 10 µM (inactive) and the GI50 [39] was > 10 µM (inactive). For the same compound, the GI50 [40] was > 10 µM (inactive), the GI50 [41] was > 10 µM (inactive) and the GI50 [42] was 9.51 µM (inactive). The GI50 [43] was > 10 µM (inactive), the GI50 [44] was > 10 µM (inactive) and the GI50 [45] was > 10 µM (inactive). For the same compound, the GI50 [46] was > 10 µM (inactive), the GI50 [47] was > 10 µM (inactive) and the GI50 [57] was > 10 µM (inactive). For the same compound, the GI50 [48] was > 10 µM (inactive), the GI50 [58] was > 10 µM (inactive) and the GI50 [49] was > 10 µM (inactive). For the same compound, the GI50 [50] was > 10 µM (inactive), the GI50 [51] was > 10 µM (inactive) and the GI50 [59] was > 10 µM (inactive). For the same compound, the GI50 [52] was > 10 µM (inactive).

For `O=C(c1ccco1)N(C(=O)N1CCC(c2ccccc2)CC1)c1ccccc1`, the GI50 [1] was 47.6 µM (inactive), the GI50 [2] was 42.7 µM (inactive) and the GI50 [3] was 42.5 µM (inactive). The GI50 [4] was 19.3 µM (inactive), the GI50 [5] was 66.5 µM (inactive) and the GI50 [6] was 24.4 µM (inactive). The GI50 [7] was 42 µM, the GI50 [9] was 31.7 µM (inactive) and the GI50 [10] was > 100 µM (inactive). For the same compound, the GI50 [11] was 17.4 µM (inactive), the GI50 [12] was 52.1 µM (inactive) and the GI50 [13] was 27.2 µM (inactive). The GI50 [14] was 26.5 µM (inactive), the GI50 [15] was > 100 µM (inactive) and the GI50 [17] was 20.2 µM (inactive). The GI50 [18] was 21.4 µM (inactive), the GI50 [19] was 38.9 µM (inactive) and the GI50 [20] was 25.9 µM (inactive). For the same compound, the GI50 [22] was > 100 µM (inactive), the GI50 [23] was > 100 µM (inactive) and the GI50 [24] was > 100 µM (inactive). The GI50 [25] was 1.95 µM (inactive), the GI50 [26] was > 100 µM (inactive) and the GI50 [27] was 81.5 µM (inactive). For the same compound, the GI50 [54] was 39.7 µM (inactive), the GI50 [55] was 23.2 µM (inactive) and the GI50 [56] was 40.7 µM (inactive). The GI50 [29] was 83 µM (inactive), the GI50 [30] was 21.6 µM (inactive) and the GI50 [31] was 55.3 µM (inactive). The GI50 [32] was 41.4 µM (inactive), the GI50 [34] was 17.7 µM (inactive) and the GI50 [35] was 76.2 µM (inactive). For the same compound, the GI50 [36] was 34 µM (inactive), the GI50 [39] was > 100 µM (inactive) and the GI50 [40] was 94.8 µM (inactive). The GI50 [41] was 47 µM (inactive), the GI50 [42] was 59.7 µM (inactive) and the GI50 [43] was 35 µM (inactive). The GI50 [44] was 74.5 µM (inactive), the GI50 [45] was 29 µM (inactive) and the GI50 [46] was 60.4 µM (inactive). The GI50 [47] was 45.7 µM (inactive), the GI50 [57] was 92.9 µM (inactive) and the GI50 [48] was 42.5 µM (inactive). The GI50 [49] was 33.7 µM (inactive), the GI50 [50] was 99.3 µM (inactive) and the GI50 [51] was 62.7 µM (inactive). For the same compound, the GI50 [59] was 22.3 µM (inactive) and the GI50 [52] was > 100 µM (inactive).

— ChEMBL document CHEMBL1201862, “PubChem BioAssay data set” (2004)
